Structures are written as SMILES. Like-named read-outs stand apart in the source and are kept apart here. Where only a bound is given, the exact number is not on record here.

Among the data in patent US20240124467A1, “FUSED PYRIMIDINE COMPOUNDS AS INHIBITORS OF MENIN-MLL INTERACTION” (Biomea Fusion, Inc., priority 2020, published 2024) are IC50 values, retold here.

What all share (assay type): cell-based
In one assay the test system is K-562. Briefly: Cell proliferation inhibition (CellTiter-Glo), K-562 cells. The note with it: Homo sapiens, K-562 (BCR-ABL). The procedure:
(§1) The present example evaluates the ability of compounds described herein, inhibitors of Menin/MLL interaction, to inhibit cell proliferation. The proliferation inhibitory effect was investigated in human MLL-leukemia cells selected on the bases of MLL fusion proteins and listed in the table below.
(§2) ATP is present in all metabolically active cells and is considered as a marker for cell viability and proliferation. The metabolic cell activity was determined using the CellTiter-Glo kit from Promega, an ATP monitoring system based on the production of luminescence by the reaction of ATP with added UltraGlo® recombinant luciferase (Kawano et al., 2016, PLOS One, 8:11(7):e0158888), according to the supplier's experimental recommendations. The assay is based on a 96 well plate format. All experiments were carried out in duplicate in one test occasion.
(§3) Test items were dissolved at 20 mM in DMSO with purity ≥99.9% (Sigma catalog no. D8418) and stored at −20° C. Cells were maintained in RPMI-1640 medium (Invitrogen catalog no. 618700) supplemented with 10% of Heat Inactivated FBS (Invitrogen catalog no. 10500) and 1% Pen-Strep (Invitrogen catalog no. 15140) and cultured at 37° C. in a humidified incubator with 5% CO2. Cell lines were grown in suspension and the cell density was maintained in a range of 5×10^4-1×10^6 viable cells/ml where possible. Cells were pelleted at 130 g×5 min.
(§4) Serial dilutions of compounds 1 to 3 in DMSO 100% were prepared starting from a 2.5 mM solutions (prepared by diluting 1:8 the 20 mM stock solution) to generate a 7 point concentration response curve (CRC). Seven concentrations of test compounds (e.g., 5.00×10^−6-1.67×10^−6-5.56×10^−7-1.85×10^−7-6.17×10^−8-2.06×10^−8-6.86×10^−9 M) were assessed in duplicate in an individual test occasion in parallel in the selected cell lines. KO-539 was used as a reference compound and tested in duplicate at seven similar concentrations. 100% of proliferation was represented by the untreated cells (0.2% DMSO).
(§5) Cell proliferation inhibition was monitored at both the following end points: Day 4 (T4) and Day 7 (T7). For the appropriate cell density during the exponential cell growth and re-supply with fresh compound solution at T4, cells were diluted (1:4) with fresh medium containing the compound concentration (1×).
(§6) For each plate to test, one 0.4 μL copy plate and four 0.3 μL copy plates were stamped into 96-well plates not treated for cell adhesion (Sarstedt—cat. no. 82.1581.001) by acoustic liquid handling (Echo) at a concentration which was 500 fold the final assay concentration. Stamped plates were stored at −20° C.
(§7) On Day 0, the day of the experiment cell line suspensions were counted by Cell Viability Analyser, Vi-CELL (Beckman Coulter AY15292), and diluted with fresh medium to obtain the following cell densities: K-562 500 c/ml, MOLM-13 1,000 c/ml, MV4-11 10,000 c/ml, OCI-AML-3 500 c/ml, and U-937 500-1,000 c/ml. 200 μL/well and 150 μL/well of cell suspension were added into the 0.4 μL/well and 0.3 μL/well compound plates, respectively. Cell plate containing 200 μL/well suspension were incubated at 37° C. in a humidified incubator with 5% CO2. From each well of the 150 μL/well cell assay plate, 100 μL were harvested and transferred into a 96-well Optiplate (Perkin Elmer, cat. no. 6005290). Cell viability was measured as described below.
(§8) On Day 4, 150p/well of fresh medium was added into a new 0.3 μL/well copy compound plates. From each well of the 200 μL/well cell assay plate, 100 μL was sampled for the cell viability measurement as described below. 50p was harvested and added to the 150p/well compound plate prepared as described in the first point to dilute 1:4 the cell suspension. The cell assay plate diluted and containing 200 μL/well suspension was incubated at 37° C. in a humidified incubator with 5% CO2.
(§9) On Day 4, 150p/well of fresh medium was added into a new 0.3 μL/well copy compound plates. […]

The next assay has as its system MOLM-13. Briefly: Cell proliferation inhibition (CellTiter-Glo), MOLM-13 cells. The note with it: Homo sapiens, MOLM-13 (MLL-AF9). How it is done:
as §1, §2, §3, §4, §5, §6, §7, §8, §9
(In general: Cellular ATP, detected with luciferase, serves as a proxy for viable cell number.)

A further assay concerns MV4-11. Briefly: Cell proliferation inhibition (CellTiter-Glo), MV4-11 cells. The note with it: Homo sapiens, MV4-11 (MLL-AF4). How it is done:
as §1, §2, §3, §4, §5, §6, §7, §8, §9

The mark [1] stands for this setting: K562, 96 h, Day 4, read-out: K-562 IC50 μM (Day 4).
The mark [2] stands for this setting: 96 h, Day 4, read-out: MOLM-13 Day IC50 μM (Day 4)*.
The mark [3] stands for this setting: 96 h, Day 4, read-out: MV-4:11 IC50 μM (Day 4)*.
[4] abbreviates: K562, 168 h, Day 7, read-out: K-562 IC50 μM (Day 7)*.
Setting [5] is: 168 h, Day 7, read-out: MOLM-13 Day IC50 μM (Day 7)*.
[6] abbreviates: 168 h, Day 7, read-out: MV-4:11 IC50 μM (Day 7)*.

The IC50 is the concentration that gives 50% inhibition. On to `C=CC(=O)N[C@@H]1CCCN(C(=O)c2ccnc(CNc3ccc(-c4cc5c(N6CCOCC6)ncnc5[nH]4)cc3)c2)C1` [Compound B0700-561, (R)—N-(1-(2-(((4-(4-morpholino-7H-pyrrolo[2,3-d]pyrimidin-6-yl)phenyl)amino)methyl)isonicotinoyl)piperidin-3-yl)acrylamide], for which the IC50 in the assay on K-562 (setting [1]) is > 10 µM; with MOLM-13 (setting [2]), 1.63 µM; with MV4-11 (setting [3]) it was 0.304 µM.

As for `C=CC(=O)N[C@H]1CCCN(c2cccc(C(C)S(=O)(=O)Nc3ccc(-c4cc5c(N6CCOCC6)ncnc5[nH]4)cc3)c2)C1` (stereo partly drawn) [Compound B0700-565], the results for the half-maximal inhibitory concentration (IC50) in the assay with K-562 (setting [1]), in the assay with MOLM-13 (setting [2]) and in the assay with MV4-11 (setting [3]) were > 10 µM, 1.03 µM and 0.274 µM, respectively.

For the compound `C=CC(=O)N[C@@H]1CCCN(Cc2ccnc(C(=O)Nc3ccc(-c4cc5c(N6CCC(O)CC6)ncnc5[nH]4)cc3)c2)C1` [Compound B0700-568], the IC50 is > 10 µM with K-562 (setting [1]); > 10 µM in the assay with K-562 (setting [4]); 0.495 µM with MOLM-13 (setting [2]); 0.924 µM in the assay on MOLM-13 (setting [5]); 0.419 µM in the assay with MV4-11 (setting [3]); 0.34 µM in the assay with MV4-11 (setting [6]).

For the compound `C=CC(=O)N[C@@H]1CCCN(Cc2ccnc(C(=O)Nc3ccc(-c4cc5c(N6CCC(C)(O)CC6)ncnc5[nH]4)cc3)c2)C1` [Compound B0700-569], the IC50 is > 10 µM with K-562 (setting [1]); 9.87 µM in the assay on K-562 (setting [4]); 0.492 µM with MOLM-13 (setting [2]); 1.07 µM in the assay on MOLM-13 (setting [5]); 0.318 µM in the assay on MV4-11 (setting [3]); 0.37 µM in the assay with MV4-11 (setting [6]).

`[2H]C1([2H])OC([2H])([2H])C([2H])([2H])N(c2ncnc3[nH]c(-c4ccc(NC(=O)c5cc(CN6CCC[C@@H](NC(=O)C=C)C6)ccn5)cc4)cc23)C1([2H])[2H]` [Compound B0700-601, (R)-4-((3-acrylamidopiperidin-1-yl)methyl)-N-(4-(4-(morpholino-d8)-7H-pyrrolo[2,3-d]pyrimidin-6-yl)phenyl)picolinamide]: the IC50 was > 10 µM with K-562 (setting [1]), 0.282 µM in the assay with MOLM-13 (setting [2]) and 0.397 µM in the assay on MV4-11 (setting [3]).

`C=CC(=O)N[C@@H]1CCC[C@H](Nc2ccnc(C(=O)Nc3ccc(-c4cc5c(N6CCOCC6)ncnc5[nH]4)cc3)c2)C1` [Compound B0700-607, 4-(((1S,3R)-3-acrylamidocyclohexyl)amino)-N-(4-(4-morpholino-7H-pyrrolo[2,3-d]pyrimidin-6-yl)phenyl)picolinamide]: the IC50 with K-562 (setting [1]) was found to be 2.96 µM; with K-562 (setting [4]), 3.47 µM; with MOLM-13 (setting [2]), 0.202 µM; with MOLM-13 (setting [5]) it was 0.349 µM; with MV4-11 (setting [3]), 0.398 µM; in the assay with MV4-11 (setting [6]) it was 0.43 µM.

Take `C=CC(=O)N1CCCC(N2CC[C@@H](C(=O)Nc3ccc(-c4cc5c(N6CCOCC6)ncnc5[nH]4)cc3)C2)C1` (stereo partly drawn) [Compound B0700-608, (3R)-1-(1-acryloylpiperidin-3-yl)-N-(4-(4-morpholino-7H-pyrrolo[2,3-d]pyrimidin-6-yl)phenyl)pyrrolidine-3-carboxamide]: the IC50 with K-562 (setting [1]) amounted to 2.19 µM; in the assay on K-562 (setting [4]) it was 3.65 µM; with MOLM-13 (setting [2]) it was 0.197 µM; in the assay on MOLM-13 (setting [5]) it was 0.164 µM; with MV4-11 (setting [3]) it was 0.138 µM; in the assay with MV4-11 (setting [6]) it was 0.1 µM.

Turning to `C=CC(=O)N1CCC(N2CCC(S(=O)(=O)Nc3ccc(-c4cc5c(N6CCOCC6)ncnc5[nH]4)cc3)CC2)CC1` [Compound B0700-610, 1′-acryloyl-N-(4-(4-morpholino-7H-pyrrolo[2,3-d]pyrimidin-6-yl)phenyl)-[1,4′-bipiperidine]-4-sulfonamide], the IC50 in the assay with K-562 (setting [1]) is > 10 µM; in the assay with K-562 (setting [4]) it was > 10 µM; in the assay with MOLM-13 (setting [2]) it was 0.806 µM; in the assay with MOLM-13 (setting [5]), 0.458 µM; in the assay on MV4-11 (setting [3]) it was 0.487 µM; in the assay on MV4-11 (setting [6]), 0.29 µM.

On to `C=CC(=O)N1CCCC(N2CCC(S(=O)(=O)Nc3ccc(-c4cc5c(N6CCOCC6)ncnc5[nH]4)cc3)C2)C1` (stereo not drawn) [Compound B0700-611, 1-(1-acryloylpiperidin-3-yl)-N-(4-(4-morpholino-7H-pyrrolo[2,3-d]pyrimidin-6-yl)phenyl)pyrrolidine-3-sulfonamide], for which the IC50 is > 10 µM with K-562 (setting [1]); > 10 µM in the assay with K-562 (setting [4]); 0.963 µM in the assay with MOLM-13 (setting [2]); 0.834 µM with MOLM-13 (setting [5]); 0.629 µM in the assay with MV4-11 (setting [3]); 0.38 µM in the assay with MV4-11 (setting [6]).

As for `C=CC(=O)N1CCC(N2CCN(S(=O)(=O)Nc3ccc(-c4cc5c(N6CCOCC6)ncnc5[nH]4)cc3)CC2)CC1` [Compound B0700-612, 4-(1-acryloylpiperidin-4-yl)-N-(4-(4-morpholino-7H-pyrrolo[2,3-d]pyrimidin-6-yl)phenyl)piperazine-1-sulfonamide], the IC50 with K-562 (setting [1]) was > 10 µM; in the assay on K-562 (setting [4]), > 10 µM; in the assay with MOLM-13 (setting [2]) it was 2.85 µM; in the assay with MOLM-13 (setting [5]), 2.39 µM; in the assay on MV4-11 (setting [3]), 1.4 µM; with MV4-11 (setting [6]) it was 1.14 µM.

With `C=CC(=O)N1CCC(N2CCN(C(=O)Nc3ccc(-c4cc5c(N6CCOCC6)ncnc5[nH]4)cc3)CC2)CC1` [Compound B0700-613, 4-(1-acryloylpiperidin-4-yl)-N-(4-(4-morpholino-7H-pyrrolo[2,3-d]pyrimidin-6-yl)phenyl)piperazine-1-carboxamide], the IC50 in the assay on K-562 (setting [1]) was 6.04 µM; with K-562 (setting [4]), 11.2 µM; in the assay on MOLM-13 (setting [2]) it was 0.632 µM; in the assay with MOLM-13 (setting [5]), 0.477 µM; in the assay with MV4-11 (setting [3]), 0.495 µM; in the assay on MV4-11 (setting [6]), 0.47 µM.

As to `C=CC(=O)N[C@@H]1CCCN(Cc2ccnc(C(=O)Nc3ccc(-c4cc5c(N6CCOCC6)nccc5[nH]4)cc3)c2)C1` [Compound B0700-614, (R)-4-((3-acrylamidopiperidin-1-yl)methyl)-N-(4-(4-morpholino-1H-pyrrolo[3,2-c]pyridin-2-yl)phenyl)picolinamide], the IC50 in the assay with K-562 (setting [1]) was determined as 0.554 µM; in the assay on K-562 (setting [4]) it was 0.186 µM; in the assay on MOLM-13 (setting [2]), 0.923 µM; in the assay with MOLM-13 (setting [5]) it was 0.523 µM; in the assay on MV4-11 (setting [3]), 0.696 µM; in the assay on MV4-11 (setting [6]) it was 1.03 µM.

Turning to `C=CC(=O)N1CCC(Nc2ccnc(C(=O)Nc3ccc(-c4cc5c(N6CCOCC6)ncnc5[nH]4)cc3)c2)CC1` [Compound B0700-616, 4-((1-acryloylpiperidin-4-yl)amino)-N-(4-(4-morpholino-7H-pyrrolo[2,3-d]pyrimidin-6-yl)phenyl)picolinamide], the 50% inhibitory concentration (IC50) with K-562 (setting [1]) is 0.744 µM; with K-562 (setting [4]), 0.636 µM; in the assay on MOLM-13 (setting [2]), 0.154 µM; in the assay with MOLM-13 (setting [5]) it was 0.157 µM; in the assay on MV4-11 (setting [3]), 0.218 µM; in the assay with MV4-11 (setting [6]), 0.17 µM.
